Measurements from PubChem BioAssay (NCI).
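The compound was tested at five concentrations on cells cultured in 96-well plates, with a 48-hour exposure period. GI50 is the concentration that inhibits growth by half. TGI marks complete inhibition of growth.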

Key:
Test in all cases: inhibition of tumour cell growth, NCI panel, 48 h
SK-MEL-2 melanoma = system: SK-MEL-2 melanoma
SF-539 CNS = system: SF-539 CNS
BT-549 breast = system: BT-549 breast
UO-31 renal = system: UO-31 renal
A498 renal = system: A498 renal
K-562 leukemia = system: K-562 leukemia
NCI-H23 lung = system: NCI-H23 lung
HT29 colon = system: HT29 colon
HCT-15 colon = system: HCT-15 colon
OVCAR-5 ovarian = system: OVCAR-5 ovarian
EKVX NSCLC = system: EKVX NSCLC
SN12C renal = system: SN12C renal
MDA-MB-435 = system: MDA-MB-435
DU-145 prostate = system: DU-145 prostate
NCI-H226 lung = system: NCI-H226 lung
TK-10 renal = system: TK-10 renal
KM12 colon = system: KM12 colon
MDA-MB-231 breast = system: MDA-MB-231 breast
CCRF-CEM leukemia = system: CCRF-CEM leukemia
OVCAR-8 ovarian = system: OVCAR-8 ovarian
SK-OV-3 ovarian = system: SK-OV-3 ovarian
NCI/ADR-RES ovarian = system: NCI/ADR-RES ovarian
CAKI-1 renal = system: CAKI-1 renal
A549 NSCLC = system: A549 NSCLC
OVCAR-4 ovarian = system: OVCAR-4 ovarian
SK-MEL-5 melanoma = system: SK-MEL-5 melanoma
HOP-62 NSCLC = system: HOP-62 NSCLC
RPMI-8226 leukemia = system: RPMI-8226 leukemia
IGROV1 ovarian = system: IGROV1 ovarian
M14 melanoma = system: M14 melanoma
786-0 renal = system: 786-0 renal
UACC-257 melanoma = system: UACC-257 melanoma
HS 578T breast = system: HS 578T breast
RXF 393 renal = system: RXF 393 renal
SNB-75 CNS = system: SNB-75 CNS
SW-620 colon = system: SW-620 colon
SNB-19 CNS = system: SNB-19 CNS
LOX IMVI melanoma = system: LOX IMVI melanoma
HL-60(TB) leukemia = system: HL-60(TB) leukemia
MALME-3M melanoma = system: MALME-3M melanoma
NCI-H460 lung = system: NCI-H460 lung
NCI-H522 lung = system: NCI-H522 lung
ACHN renal = system: ACHN renal
HOP-92 NSCLC = system: HOP-92 NSCLC
MCF7 breast = system: MCF7 breast
SK-MEL-28 melanoma = system: SK-MEL-28 melanoma
U251 CNS = system: U251 CNS
MOLT-4 leukemia = system: MOLT-4 leukemia
HCT-116 colon = system: HCT-116 colon
PC-3 prostate = system: PC-3 prostate
SR leukemia = system: SR leukemia
SF-295 CNS = system: SF-295 CNS
UACC-62 melanoma = system: UACC-62 melanoma
HCC-2998 colon = system: HCC-2998 colon
SF-268 CNS = system: SF-268 CNS

SMILES: COc1ccccc1NC1=C(Cl)C(=O)c2nc(C)ccc2C1=O
- GI50 (SK-MEL-2 melanoma): 1810 nM
- TGI (SK-MEL-2 melanoma): 3350 nM
- GI50 (SF-539 CNS): 1680 nM
- TGI (SF-539 CNS): 3130 nM
- GI50 (BT-549 breast): 1720 nM
- TGI (BT-549 breast): 3270 nM
- GI50 (UO-31 renal): 1420 nM
- TGI (UO-31 renal): 2730 nM
- GI50 (A498 renal): 1900 nM
- TGI (A498 renal): 4600 nM
- GI50 (K-562 leukemia): 290 nM
- TGI (K-562 leukemia): 2940 nM
- GI50 (NCI-H23 lung): 1470 nM
- TGI (NCI-H23 lung): 3310 nM
- GI50 (HT29 colon): 2130 nM
- TGI (HT29 colon): 4490 nM
- GI50 (HCT-15 colon): 1330 nM
- TGI (HCT-15 colon): 3020 nM
- GI50 (OVCAR-5 ovarian): 1860 nM
- TGI (OVCAR-5 ovarian): 3420 nM
- GI50 (EKVX NSCLC): 1610 nM
- TGI (EKVX NSCLC): 3050 nM
- GI50 (SN12C renal): 1700 nM
- TGI (SN12C renal): 3290 nM
- GI50 (MDA-MB-435): 1700 nM
- TGI (MDA-MB-435): 3110 nM
- GI50 (DU-145 prostate): 1720 nM
- TGI (DU-145 prostate): 3110 nM
- GI50 (NCI-H226 lung): 1930 nM
- TGI (NCI-H226 lung): 4520 nM
- GI50 (TK-10 renal): 2340 nM
- TGI (TK-10 renal): 3860 nM
- GI50 (KM12 colon): 1490 nM
- TGI (KM12 colon): 3080 nM
- GI50 (MDA-MB-231 breast): 1190 nM
- TGI (MDA-MB-231 breast): 2530 nM
- GI50 (CCRF-CEM leukemia): 1940 nM
- TGI (CCRF-CEM leukemia): 8210 nM
- GI50 (OVCAR-8 ovarian): 1610 nM
- TGI (OVCAR-8 ovarian): 3250 nM
- GI50 (SK-OV-3 ovarian): 12600 nM
- TGI (SK-OV-3 ovarian): 27500 nM
- GI50 (NCI/ADR-RES ovarian): 2030 nM
- TGI (NCI/ADR-RES ovarian): 5160 nM
- GI50 (CAKI-1 renal): 1500 nM
- TGI (CAKI-1 renal): 2870 nM
- GI50 (A549 NSCLC): 2440 nM
- TGI (A549 NSCLC): 6240 nM
- GI50 (OVCAR-4 ovarian): 1210 nM
- TGI (OVCAR-4 ovarian): 2490 nM
- GI50 (SK-MEL-5 melanoma): 1750 nM
- TGI (SK-MEL-5 melanoma): 3170 nM
- GI50 (HOP-62 NSCLC): 2410 nM
- TGI (HOP-62 NSCLC): 6980 nM
- GI50 (RPMI-8226 leukemia): 1570 nM
- TGI (RPMI-8226 leukemia): 4610 nM
- GI50 (IGROV1 ovarian): 1460 nM
- TGI (IGROV1 ovarian): 2920 nM
- GI50 (M14 melanoma): 1820 nM
- TGI (M14 melanoma): 3810 nM
- GI50 (786-0 renal): 1910 nM
- TGI (786-0 renal): 3610 nM
- GI50 (UACC-257 melanoma): 1570 nM
- TGI (UACC-257 melanoma): 3090 nM
- GI50 (HS 578T breast): 2270 nM
- TGI (HS 578T breast): 5640 nM
- GI50 (RXF 393 renal): 1420 nM
- TGI (RXF 393 renal): 2760 nM
- GI50 (SNB-75 CNS): 1500 nM
- TGI (SNB-75 CNS): 2840 nM
- GI50 (SW-620 colon): 1840 nM
- TGI (SW-620 colon): 3730 nM
- GI50 (SNB-19 CNS): 1810 nM
- TGI (SNB-19 CNS): 3720 nM
- GI50 (LOX IMVI melanoma): 952 nM
- TGI (LOX IMVI melanoma): 2360 nM
- GI50 (HL-60(TB) leukemia): 1370 nM
- TGI (HL-60(TB) leukemia): 3520 nM
- GI50 (MALME-3M melanoma): 1710 nM
- TGI (MALME-3M melanoma): 3190 nM
- GI50 (NCI-H460 lung): 3220 nM
- TGI (NCI-H460 lung): 12000 nM
- GI50 (NCI-H522 lung): 1810 nM
- TGI (NCI-H522 lung): 3360 nM
- GI50 (ACHN renal): 1470 nM
- TGI (ACHN renal): 2800 nM
- GI50 (HOP-92 NSCLC): 1850 nM
- TGI (HOP-92 NSCLC): 3300 nM
- GI50 (MCF7 breast): 1780 nM
- TGI (MCF7 breast): 4490 nM
- GI50 (SK-MEL-28 melanoma): 1850 nM
- TGI (SK-MEL-28 melanoma): 3340 nM
- GI50 (U251 CNS): 1850 nM
- TGI (U251 CNS): 3730 nM
- GI50 (MOLT-4 leukemia): 2270 nM
- TGI (MOLT-4 leukemia): 8600 nM
- GI50 (HCT-116 colon): 1530 nM
- TGI (HCT-116 colon): 4160 nM
- GI50 (PC-3 prostate): 1210 nM
- TGI (PC-3 prostate): 2580 nM
- GI50 (SR leukemia): 794 nM
- TGI (SR leukemia): 4250 nM
- GI50 (SF-295 CNS): 1850 nM
- TGI (SF-295 CNS): 3420 nM
- GI50 (UACC-62 melanoma): 1820 nM
- TGI (UACC-62 melanoma): 3370 nM
- GI50 (HCC-2998 colon): 1870 nM
- TGI (HCC-2998 colon): 3460 nM
- GI50 (SF-268 CNS): 1530 nM
- TGI (SF-268 CNS): 3050 nM
